Data reported in ChEMBL document CHEMBL6115002, “Discovery of novel sitolactone derivative leading to PANoptosis and differentiation of acute myeloid leukemia cells” (Eur J Med Chem, 2025).
Calls of active or inactive are those of the source. The rule behind the calls is not given here.

What was measured:
Mus musculus [1] = assay: Antitumor activity against Balb/c mouse implanted with mouse WEHI-3 cells assessed as reduction in splenomegaly at 100 to 200 mg/kg, po administered once daily for 15 days; assay type: functional, organism-based; details: dose 100-200 mg/kg, time 15.0 day
[2] = Oral bioavailability in male Sprague-Dawley rat at 200 mg/kg measured after 18 hrs LC/MS-MS analysis; assay type: ADME, organism-based; details: in vivo
[3] = AUC (0 to t) in male Sprague-Dawley rat at 50 mg/kg, iv measured after 18 hrs LC/MS-MS analysis; assay type: ADME, organism-based; details: in vivo
[4] = Half life in male Sprague-Dawley rat at 200 mg/kg, po measured after 18 hrs LC/MS-MS analysis; assay type: ADME, organism-based; details: in vivo
WEHI-3 [5] = assay: Antitumor activity against mouse WEHI-3 cells implanted in Balb/c mouse assessed as reduction in liver metastasis at 100 to 200 mg/kg, po administered daily for 15 days by H and E staining based analysis; assay type: functional, organism-based; details: dose 100-200 mg/kg, time 15.0 day
Mus musculus [6] = assay: Antitumor activity against Balb/c mouse implanted with mouse WEHI-3 cells assessed as reduction in hepatomegaly at 100 to 200 mg/kg, po administered once daily for 15 days; assay type: functional, organism-based; details: dose 100-200 mg/kg, time 15.0 day
[7] = Cmax in male Sprague-Dawley rat at 50 mg/kg, iv measured after 18 hrs LC/MS-MS analysis; assay type: ADME, organism-based; details: in vivo
[8] = AUC(0 to t) in male Sprague-Dawley rat at 200 mg/kg, po measured after 18 hrs LC/MS-MS analysis; assay type: ADME, organism-based; details: in vivo
[9] = Half life in male Sprague-Dawley rat at 50 mg/kg, iv measured after 18 hrs LC/MS-MS analysis; assay type: ADME, organism-based; details: in vivo
[10] = Cmax in male Sprague-Dawley rat at 200 mg/kg, po measured after 18 hrs LC/MS-MS analysis; assay type: ADME, organism-based; details: in vivo
Mus musculus [11] = assay: Antitumor activity against Balb/c mouse implanted with mouse WEHI-3 cells assessed as reduction in splenomegaly at 1 mg/kg, po administered once daily for 15 days; assay type: functional, organism-based; details: time 15.0 day
[12] = Permeability of compound in human Caco-2 cells; assay type: ADME, cell-based
Kasumi 1 [13] = assay: Antiproliferative activity against human Kasumi 1 cells assessed as inhibition cell proliferation incubated for 72 hrs by MTT assay; assay type: functional, cell-based; details: Kasumi 1, 72 h
[14] = Antiproliferative activity against mouse WEHI-3 cells assessed as inhibition cell proliferation incubated for 72 hrs by MTT assay; assay type: functional, cell-based; details: WEHI-3, 72 h
MV4-11 = assay: Antiproliferative activity against human MV4-11 cells assessed as inhibition cell proliferation incubated for 72 hrs by MTT assay; assay type: functional, cell-based; details: MV4-11, 72 h
HCT-116 = assay: Inhibition of tumor sphere formation in human HCT-116 cells at 1.25 uM incubated for 24 hrs; assay type: functional, cell-based
Kasumi 1 [15] = assay: Upregulation of SMARCA4 protein level in human Kasumi 1 cells by pull down based Western blotting analysis; assay type: functional, cell-based
Kasumi 1 [16] = assay: Upregulation of SMARCA2 protein level in human Kasumi 1 cells by pull down based Western blotting analysis; assay type: functional, cell-based
Kasumi 1 [17] = assay: Upregulation of SMARCB1 protein level in human Kasumi 1 cells by pull down based Western blotting analysis; assay type: functional, cell-based
WEHI-3 [18] = assay: Induction of […] in mouse WEHI-3 cells assessed as activation of p-RIPK3 level at 25 to 50 uM incubated for 24 hrs by Western blotting analysis; assay type: functional, cell-based; details: dose 25-50 µM
WEHI-3 [19] = assay: Induction of apoptosis in mouse WEHI-3 cells assessed as increase in caspase-3 level incubated for 24 hrs by Western blotting analysis; assay type: functional, cell-based; details: dose 25-50 µM
WEHI-3 [20] = assay: Induction of […] in mouse WEHI-3 cells assessed as activation of p-MLKL level at 25 to 50 uM incubated for 24 hrs by Western blotting analysis; assay type: functional, cell-based; details: dose 25-50 µM
Kasumi 1 [21] = assay: Induction of […] in human Kasumi 1 cells assessed as activation of p-RIPK3 level at 25 to 50 uM incubated for 24 hrs by Western blotting analysis; assay type: functional, cell-based; details: dose 25-50 µM
Kasumi 1 [22] = assay: Induction of apoptosis in human Kasumi 1 cells assessed as increase in cleaved PARP-1 level incubated for 24 hrs by Western blotting analysis; assay type: functional, cell-based; details: dose 25-50 µM
Kasumi 1 [23] = assay: Induction of apoptosis in human Kasumi 1 cells assessed as increase in caspase-3 level incubated for 24 hrs by Western blotting analysis; assay type: functional, cell-based; details: dose 25-50 µM
Kasumi 1 [24] = assay: Induction of […] in human Kasumi 1 cells assessed as activation of p-MLKL level at 25 to 50 uM incubated for 24 hrs by Western blotting analysis; assay type: functional, cell-based; details: dose 25-50 µM
Mus musculus [25] = assay: Antitumor activity against Balb/c mouse implanted with mouse WEHI-3 cells assessed as reduction in hepatomegaly at 1 mg/kg, po administered once daily for 15 days; assay type: functional, organism-based; details: time 15.0 day
WEHI-3 [26] = assay: Induction of apoptosis in mouse WEHI-3 cells assessed as increase in cleaved PARP-1 level incubated for 24 hrs by Western blotting analysis; assay type: functional, cell-based; details: dose 25-50 µM

For CC(C)[Si](O[C@H]1CC[C@H]2[C@@H]3CC(CN4CCC[C@H]4CO)C(=O)O[C@@H]3CC[C@]12C)(C(C)C)C(C)C (stereo partly drawn), the Activity (Mus musculus [1]) was “Active”, the bioavailability [2] was 68.6% and the AUC(0-t) at 18 h [3] was 7150 ng·h/mL. For the same molecule, the half-life [4] was 59.8 min, the Activity (WEHI-3 [5]) was “Active” and the Activity (Mus musculus [6]) was “Active”. For the same molecule, the Cmax [7] was 12100 ng/mL, the AUC(0-t) at 18 h [8] was 19600 ng·h/mL and the half-life [9] was 16.3 min. For the same molecule, the Cmax [10] was 17700 ng/mL and the Activity (Mus musculus [11]) was “Active”.

For C=C1C[C@@H]2[C@@H](CC[C@]3(C)[C@@H](OC(c4ccccc4)(c4ccc(OC)cc4)c4ccc(OC)cc4)CC[C@@H]23)OC1=O, the permeability [12] was “Permeable”, the IC50 (Kasumi 1 [13]) was 1.46 µM and the IC50 [14] was 0.94 µM. For the same molecule, the IC50 (MV4-11) was 3.04 µM and the inhibition (HCT-116) was “inactive”.

For CC(C)[Si](O[C@H]1CC[C@H]2[C@@H]3CC(CCCc4cn(CCOCCOCCOCCNC(=O)CCCC[C@@H]5SC[C@@H]6NC(=O)N[C@@H]65)nn4)C(=O)O[C@@H]3CC[C@]12C)(C(C)C)C(C)C (stereo partly drawn), the Activity (Kasumi 1 [15]) was “Active”, the Activity (Kasumi 1 [16]) was “Active” and the Activity (Kasumi 1 [17]) was “Active”.

In the case of COC(=O)C[C@](O)(CCCC(C)(C)O)C(=O)O[C@@H]1C(OC)=C[C@]23CCCN2CCc2cc4c(cc2[C@H]13)OCO4, the Activity (WEHI-3 [18]) is reported as “inactive”, the Activity (WEHI-3 [19]) is reported as “Dose-dependent-effect” and the Activity (WEHI-3 [20]) is reported as “inactive”. The Activity (Kasumi 1 [21]) was “inactive”, the Activity (Kasumi 1 [22]) was “Dose-dependent-effect” and the Activity (Kasumi 1 [23]) was “Dose-dependent-effect”. For the same molecule, the Activity (Kasumi 1 [24]) was “inactive”, the Activity (Mus musculus [25]) was “Active” and the Activity (WEHI-3 [26]) was “Dose-dependent-effect”.

For C=C1C[C@@H]2[C@@H](CC[C@]3(C)[C@@H](OC(c4ccccc4)(c4ccccc4)c4ccccc4)CC[C@@H]23)OC1=O, the permeability [12] was “Permeable”, the IC50 (Kasumi 1 [13]) was 1.85 µM and the IC50 [14] was 1.03 µM. The IC50 (MV4-11) was 2.68 µM and the inhibition (HCT-116) was “inactive”.

Molecule C=C1C[C@@H]2[C@@H](CC[C@]3(C)[C@@H](OS(=O)(=O)c4cccs4)CC[C@@H]23)OC1=O has an IC50 (Kasumi 1 [13]) of 9.32 µM, an IC50 [14] of 8.25 µM and an IC50 (MV4-11) of 8.71 µM.

Work on C=C1C[C@@H]2[C@@H](CC[C@]3(C)[C@@H](OS(=O)(=O)c4ccc(C#N)cc4)CC[C@@H]23)OC1=O yielded an IC50 (Kasumi 1 [13]) of 8.92 µM, an IC50 [14] of 7.62 µM and an IC50 (MV4-11) of 9.13 µM.

Molecule C=C1C[C@@H]2[C@@H](CC[C@]3(C)[C@@H](OS(=O)(=O)CCC)CC[C@@H]23)OC1=O has an IC50 (Kasumi 1 [13]) of over 20 µM, an IC50 [14] of over 20 µM and an IC50 (MV4-11) of over 20 µM.

Molecule C=C1C[C@@H]2[C@@H](CC[C@]3(C)[C@@H](O[Si](OCC)(OCC)OCC)CC[C@@H]23)OC1=O has an IC50 (Kasumi 1 [13]) of over 20 µM, an IC50 [14] of over 20 µM and an IC50 (MV4-11) of over 20 µM.

Work on C=C1C[C@@H]2[C@@H](CC[C@]3(C)[C@@H](OS(=O)(=O)c4ccc(OC)cc4)CC[C@@H]23)OC1=O yielded an IC50 (Kasumi 1 [13]) of 8.36 µM, an IC50 [14] of 9.29 µM and an IC50 (MV4-11) of 14.6 µM.
